Experimental data published in the supplement of paper PMC11208160.

Experiment: recombinant barcode read abundance after kanamycin selection (control-corrected) (log10(CPM+1)); higher = more efficient recombination; sequences stand for … in AGTGCAGAGAAAATCGGCCAGTTTTCTCTGCCTGCAGTCCGCATGCCGT…AGATTTATGCAGCGGACTGCCTTTCTCCCAAAGTGATAAACCGGACAGTATCATGGACCGGTTTTCCCGGTAATCCGTATTTGCAAGGTTGGTTTCACT; site = the 11-nt target
Summary of the method: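 Recombination efficiency in this pooled E. coli screen uses counts per million of barcodes at recombinant junctions, averaged and corrected against the control. The reported form is log10(CPM+1). Two replicates were plated on chloramphenicol/ampicillin LB agar as control and two on chloramphenicol/ampicillin/kanamycin with 0.1 mM IPTG.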
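Further: IS621 recombinase and bridge RNA in Escherichia coli cells.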

In order of falling “recombinant barcode read abundance (log10)” value:
1. AAGGGCTCTTGGGTTCTAACCTGTTGCTT (site AAGGGCTCTAA)  2.72
2. AGGAAGACTTGGGTTCTAACCTGTTGCCG (site AGGAAGACTCG)  1.95
3. CACATACCTTGGGTTCTAACCTGTTGCGT (site CACATACCTAC)  1.92
4. CGTGAGACTTGGGTTCTAACCTGTTGCCT (site CGTGAGACTAG)  1.48
5. AAGGCCGCTTGGGTTCTAACCTGTTGCCT (site AAGGACGCTAG)  1.37
6. AGAGAATCTTGGGTTCTAACCTGTTGCCT (site AGAGAATCTAG)  1.28
7. GTCAAACCTTGGGTTCTAACCTGTTGCTG (site GTCAAACCTCA)  0.974
8. GCGTTACCTTGGGTTCTAACCTGTTGCCT (site GCGTTACCTAG)  0.97
9. TGTCGATCTTGGGTTCTAACCTGTTGCCT (site TGTCGATCTAG)  0.94
10. AGAATATCTTGGGTTCTAACCTGTTGCCT (site AGAATATCTAG)  0.834
11. GGTGGATCTTGGGTTCTAACCTGTTGCCT (site GGTGGATCTAG)  0.813
12. GGCTACCCTTGGGTTCTAACCTGTTGCAA (site GGCTACCCTTT)  0.774
13. TTGCCGACTTGGGTTCTAACCTGTTGCCA (site TTGACGACTTG)  0.608
14. CGGAGCTCTTGGGTTCTAACCTGTTGCCT (site CGAAGCTCTAG)  0.58
15. GATCAATCTTGGGTTCTAACCTGTTGCCT (site GATCAATCTAG)  0.332
16. CGAGATTCTTGGGTTCTAACCTGTTGCCT (site CAAGATTCTAG)  0.331
17. CTGAGAGCTTGGGTTCTAACCTGTTGCCT (site CAGAGAGCTAG)  0.319
18. ATGCAACCTTGGGTTCTAACCTGTTGCCT (site ATGCAATCTAG)  0.293
19. AATGGGCCTTGGGTTCTAACCTGTTGCCT (site AATGGGCCTAG)  0.273
20. CTAAGAACTTGGGTTCTAACCTGTTGCGT (site CTAAGAACTAG)  0.264
21. ATGTCTCCTTGGGTTCTAACCTGTTGCCT (site TTGTCTCCTAG)  0.228
22. CTAGGAGCTTGGGTTCTAACCTGTTGCTC (site CTAGGAGCTCA)  0.222
23. CGAATCCCTTGGGTTCTAACCTGTTGCCG (site CGAACCTCTCG)  0.185
24. GGAGGTCCTTGGGTTCTAACCTGTTGCCG (site ACTCAGACTGT)  0.161
25. TAGAACACTTGGGTTCTAACCTGTTGCTC (site TAGAACACTCA)  0.151
26. TAACGTACTTGGGTTCTAACCTGTTGCGG (site TAACGTCCTAC)  0.113
27. CCTGGGCCTTGGGTTCTAACCTGTTGCCT (site CCTGGGCCTAG)  0.11
28. TCGCGGACTTGGGTTCTAACCTGTTGCCT (site TCTCGGACTAG)  0.0887
29. TATTGGACTTGGGTTCTAACCTGTTGCTT (site CATTGGACTAA)  0.0882
30. TCATAGCCTTGGGTTCTAACCTGTTGCTG (site TCAGAGCCTCA)  0.087
31. ATTTAACCTTGGGTTCTAACCTGTTGCGT (site GGGGTGTCTCG)  0.0805
32. AGTAGGGCTTGGGTTCTAACCTGTTGCAG (site CGTAGGGCTCG)  0.0704
33. CACATACCTTGGGTTCTAACCTGTTGCCG (site CACATACCTAC)  0.0694
34. ATATACGCTTGGGTTCTAACCTGTTGCCT (site CTATAGGCTAG)  0.0578
35. TACAAGCCTTGGGTTCTAACCTGTTGCGG (site TACAAGTCTCT)  0.051
36. TACTCAACTTGGGTTCTAACCTGTTGCCT (site TACTGAACTAG)  0.0105
